{
  "source": "patent US8748369B2",
  "about": "“Use of targeted nitroxide agents in bone healing” (University of Pittsburgh-Of the Commonwealth System of …, priority 2009, dated 2014)",
  "key": {"NOD/SCID mice": {"tested_on": "NOD/SCID mice", "assay": "Proposed: human CD34+ cord blood stem cell seeding into irradiated limbs of NOD/SCID mice", "conditions": "mouse, in vivo", "text": "Selection and optimization of a GS-nitroxide JP4-039 therapy to enhance human CD34+ cord blood multilineage hematopoietic stem cell progenitor cell seeding into irradiated limbs of NOD/SCID mice that have been prepared by engraftment of human marrow stromal cells.\n2. Experiments using the optimal seeding protocol for human KM101 cells into irradiated NOD/SCID mice (anticipated to be those mice receiving MnSOD-PL prior to irradiation, and then injection with KM101-MnSOD/ds-red, supplemented with JP4-039 daily). Mice can then receive intravenous injection of 1×10^5 or 1×10^6 CD34+ LIN− cells from human umbilical cord blood origin. Control cells may be CD34+ LIN+ (differentiated progenitor) cells 10^5 or 10^6 per injection. Groups of 12 mice. These experiments may be carried out in two schedules. • a. […]\nIn these experiments, mice can be followed and tested at serial time points out to two months after cord blood stem cell transplantation. The percent of human peripheral blood hematopoietic cells can be scored in weekly peripheral blood samples and number of cells forming CFU-GEMM colonies can be tested in explanted bones from sacrificed mice. […]\nExperiments in vitro supplementing in co-cultivation culture media the drug JP4-039 daily. […] Stromal cell cultures may be irradiated, cord blood cells added, and cultures scored as above. […]"}, "[1]": {"tested_on": "mouse embryonic cells, mitochondria", "assay": "EPR-based analysis of integration and distribution of nitroxides (Example 9)", "type": "cell-based", "conditions": "10 μM nitroxides for 10 min", "method": "To compare the integration efficiency, mouse embryonic cells (1×10^7/mL) were incubated with 10 μM nitroxides for 10 min. ESR spectra of nitroxide radicals in the incubation medium, cell suspension or mitochondrial suspension were recorded after mixing with acetonitrile (1:1 v/v) after 5-min incubation with 2 mM K3Fe(CN)6 using JEOL-RE1X EPR spectrometer under the following conditions: 3350 G center field; 25 G scan range; 0.79 G field modulation, 20 mW microwave power; 0.1 s time constant; 4 min scan time. Integration efficiency was calculated as (Einitial−Emedium)/Einitial×100%. Mitochondria were isolated using a mitochondria isolation kit (Pierce, Rockford, Ill.) according to the manufacturer's instruction. Amounts of nitroxide radicals integrated into mitochondria were normalized to the content of cytochrome c oxidase subunit IV."}, "mouse embryonic cells": {"tested_on": "mouse embryonic cells", "assay": "Gamma irradiation induced superoxide generation and cardiolipin oxidation", "type": "cell-based", "conditions": "10 Gy, 20 μM", "method": "Oxidation-dependent fluorogenic dye, DHE was used to evaluate intracellular production of superoxide radicals. DHE is cell permeable and, in the presence of superoxide, is oxidized to fluorescent ethidium which intercalates into DNA. Briefly, cells were treated with 5 μM DHE for 30 min at the end of incubation. Cells were then collected by trypsinization and resuspended in PBS. The fluorescence of ethidium was measured using a FACScan flow cytometer (Becton-Dickinson, Rutherford, N.J.) supplied with the CellQuest software. Mean fluorescence intensity from 10,000 cells was acquired using a 585/42 nm bandpass filter.\nCL hydroperoxides were determined by fluorescence HPLC of products formed in MP-11-catalyzed reaction with a fluorogenic substrate, Amplex Red. […] Shimadzu LC-100AT vp HPLC system equipped with fluorescence detector (RF-10Axl, Ex/Em=560/590 nm) and autosampler (SIL-10AD vp) were used for the analysis of products separated by HPLC (Eclipse XDB-C18 column, 5 μm, 150×4.6 mm) Mobile phase was composed of NaH2PO4 (25 mM, pH 7.0)/methanol (60:40 v/v).\n(A) superoxide generation. […] Ethidium fluorescence was analyzed using a FACScan flow cytometer supplied with CellQuest software. Mean fluorescence intensity from 10,000 cells was acquired using a 585-nm bandpass filter. […] Cardiolipin hydroperoxides were determined using a fluorescent HPLC-based Amplex Red assay. […]"}, "[2]": {"assay": "log octanal/water (Ko/w) partition coefficient", "type": "physicochemical", "text": "A practical skin patch is planned for delivery of JP4-039 or other compounds delivered herein. The patch can be administered to a subject before, during or after exposure to radiation, including 24 hr or later after irradiation exposure of the subject. In preliminary studies, we sought to characterize the absorption/penetration of a topically applied representative GS-Nitroxide XJB-5-125 in mouse skin. XJB-5-125 was selected as a potential topical agent based on its ability to inhibit ROS generation, inhibit apoptosis and suppress oxidative damage to mitochondrial lipids. […] The physical properties of a chemical are critical to its ability to penetrate into and through the skin. Two important factors are the log octanal/water (Ko/w) partition coefficient and the molecular weight. For XJB-5-125, the log Ko/w=4.5 and molecular weight is 956. The lipophilicity “rule” is based on the need for a compound to partition out of the lipophilic stratum corneum and into the more hydrophilic epidermis and dermis."}},
  "note": "Where a SMILES comes first, the peptide text is derived from it. [ ]: non-standard residue; d: D form. The star is where a group is joined. NH(TEMPO-4-yl) = CC1(C)CC(N*)CC(C)(C)N1[O]; Orn = NCCC[C@H](N)C(=O)O; Cbz = O=C(OCc1ccccc1)*; Boc = CC(C)(C)OC(=O)*",
  "data": [
    {"smiles": "CC(C)C[C@@H](/C=C/CC(=O)NC1CC(C)(C)N([O])C(C)(C)C1)NC(=O)OC(C)(C)C", "note": "[JP4-039, (S,E)-5-(tert-Butoxycarbonylamino)-7-methyloct-3-enoic acid-TEMPO]", "values": [
      {"measurement": "hematopoietic cell survival and CFU-GEMM numbers", "setting": "NOD/SCID mice", "value": "further enhance hematopoietic cell survival and increase CFU-GEMM in numbers"}
    ]},
    {"smiles": "CC(C)C[C@H](NC(=O)OC(C)(C)C)C(=O)N[C@H](Cc1ccccc1)C(=O)N1CCC[C@H]1C(=O)N[C@H](C(=O)N[C@@H](CCCNC(=O)OCc1ccccc1)C(=O)NC1CC(C)(C)N([O])C(C)(C)C1)C(C)C", "note": "[XJB-5-125] (Boc-L[dF]PV[Orn](Cbz)-{NH(TEMPO-4-yl)})", "values": [
      {"measurement": "integration into cells and mitochondria compared with non-conjugated 4-amino-TEMPO", "setting": "[1]", "value": "much more efficiently"},
      {"measurement": "gamma irradiation induced cardiolipin peroxidation", "setting": "mouse embryonic cells", "value": "protects"},
      {"measurement": "gamma irradiation induced superoxide generation", "setting": "mouse embryonic cells; 10-min before or 1-h after irradiation", "value": "protects"},
      {"measurement": "log Ko/w", "setting": "[2]", "value": 4.5}
    ]}
  ]
}
